Assay results published in patent publication US20250161310A1, “PHARMACEUTICAL COMBINATIONS FOR USE IN THE TREATMENT OF NEOPLASTIC DISEASES” (priority 2022, published 2025).
Read-outs that look alike come from different tables or passages of the source. Marks after values point to notes of the source that are not given here.

Experiments:
[1] = test system: SKOV-3 s.c. xenografts; assay type: in vivo; settings: day 23
Experimental: The anti-tumor activity of the compound of formula (I) in combination with carboplatin was evaluated in an ovarian cancer model, using human SKOV-3 cells grown as a solid tumor xenograft subcutaneously (s.c.) in nude mice.
The maximum tolerated dose (MTD) of the compound of formula (I) in combination with an optimal dose of carboplatin was defined in non-tumor bearing BALB/c nude mice in the experiments described above. […] Thus, in this study, using a human ovarian cell line derived xenograft (CDX) model, that schedule was applied and compared directly with the same order of administration with a 1 hr or 24 hr gap between compounds. In addition, the twice-weekly schedule was compared with a weekly schedule of 7 mg/kg BAL0891 (a weekly dose well below the MTD for compound of formula (I) monotherapy) using a 4 hr gap. Treatments continued until day 24 and tumor volumes and body weight were monitored until day 51.

[2] = test system: BR1282 TNBC PDX tumor; test: first PDX combination study (carboplatin first), BR1282; settings: for Efficacy: ΔT/C Day 0 up to Day 31: based on mean rate of growth (k); for Efficacy: ΔT/C Day 0 up to Day 31 / Efficacy: ΔT/C Day 10: formula (I) 7 mg/kg 2qw i.v., carboplatin 60 mg/kg qw i.v., carboplatin first; for Mean difference of mean rate of growth (k), Vehicle vs. treatment: comparator Vehicle, day 0 to latest day 31; for Efficacy: ΔT/C Day 10: mean change in tumor volume
Experimental: In a first PDX study, female BALB/c nude mice (CrownBio) of at least 20 g body weight were subcutaneously (s.c.) inoculated in the right flank with tumor fragments (3*3*3 mm) from stock mice bearing the patient-derived xenograft (PDX) triple negative breast cancer (TNBC) tumor, BR1282. Randomization into 5 different treatment groups (8 mice per group) was made when the mean tumor size was 150-200 mm^3. Mice were dosed intravenously (i.v.) twice weekly (2qw) with the compound of formula (I) (7 mg/kg, i.v., 5 mL/kg) or once weekly (qw) carboplatin (60 mg/kg, i.v., 10 mL/kg) or the combination of these doses, in which the compound of formula (I) was administered after carboplatin using either a 4 h or a 24 h gap, when both compounds were administered on the same day/consecutive days. The fifth group received both vehicles using the time interval of 4 h and all groups were dosed twice via the tail vein. Dosing was delayed by 1 day in any mice showing transient body weight loss of >10% at any time point.
(§1) Carboplatin was purchased from Qilu Pharmaceutical Co. Ltd. as a solution (10 mg/mL in 5% (w/v) glucose in pure water). The compound of formula (I) was supplied as a powder by Basilea Pharmaceutica International Ltd. and was prepared freshly as a solution in Ethanol:PEG400:Citric acid 20 mM, at a ratio of 1:1:8 and at a final pH of 3.7, for immediate administration.
(§2) Body weights and tumor volumes were determined at least twice per week, the latter by measuring two dimensions with calipers and applying the formula “V=(L×W^2)/2”, where V is the tumor volume, and L and W are the tumor length and width re-spectively. […] Mice were also culled if the BWL was determined to be >15% for 3 consecutive days. Any mice with >10% BWL, automatically were dosed on one of the following days, as soon as the BWL returned to <10%. All animal protocols were reviewed and approved by the relevant local committees in China, where the studies were performed.
(§3) The statistical significance of efficacy were determined in two different ways using a) the endpoint on day 10 or day 14 depending on the study when it was necessary to cull the vehicle group because of tumor volume exceeding 1500 mm^3, and b) at the endpoint of day 31 in the first study when exponential curve fits were applied to estimate the rates of tumor growth in the different groups. The degree of an effect was quantified by the delta (A) treated/control ratio (ΔT/C) and the statistical significance of the effect was determined by a one-way analysis of variance (1W-ANOVA) with Holms-Sidak applied post-hoc for multiple determinations, where a p-value of <0.05 was considered statistically significant. In addition, an assessment of the combination effect was made based upon the Clarkes Combination Index (CCI), where the CCI=ΔT/CAB−(ΔT/CA*ΔT/CB) in which A and B are two different compounds and AB the combination thereof, where CCI<−0.1 indicates synergy (or a positive interaction), +0.1 (antagonism, or a negative interaction) and between −0.1 and +0.1 indicates additivity (no interaction); see O'Reilly et al. Anti Cancer Drugs 2011; 22:58-78.

[3] = test system: BR1282 TNBC PDX tumor; test: second PDX combination study (compound of formula (I) first), BR1282; settings: for Efficacy: ΔT/C Day 0 up to Day 17: based on mean rate of growth (k), formula (I) 8 mg/kg qw first, carboplatin 60 mg/kg qw 4 h later; for k means, Mean difference, Vehicle vs. treatment / Δ tumor volume on day 14, Mean difference, Vehicle vs. treatment: comparator Vehicle; for Efficacy: ΔT/C Day 14: mean change in tumor volume, formula (I) 8 mg/kg qw i.v. first, carboplatin 60 mg/kg qw i.v. 4 h later
Experimental: In a second PDX study, the same model was used as for the first study (TNBC BR1282 PDX model), but this time compound of formula (I) (8 mg/kg, i.v., qw, 5 mL/kg) was administered first and carboplatin (60 mg/kg, i.v., qw, 6 mL/kg) second using a 4 h gap between both administrations and compound of formula (I) was provided qw. Consequently, the mice received both compounds on the same day (4 h gap).
as §1, §2, §3

[4] = maximum tolerated dose in combination with carboplatin in non-tumor-bearing mice; assay type: in vivo
Source text: Carboplatin is standard of care treatment in a number of tumor indications. To determine the combination effect of the compound of formula (I) and carboplatin, the maximum tolerated dose (MTD) of the compound of formula (I) in combination with an optimal dose of carboplatin was first defined in non-tumor-bearing BALB/c nude mice. […]

[5] = test system: 18 different triple negative breast cancer cell lines; test: 5-day anti-proliferative screen of 18 triple negative breast cancer cell lines; assay type: cell-based; settings: 120 h; 5-day screen, 18 TNBC cell lines; read-out: median GI50
Source text: (§4) In cellular systems, the compound of formula (I) has high potency against sensitive cells.

[6] = molecular target: T1, tumor-derived TTK (Homo sapiens, UniProt P33981); test: tumor TTK target occupancy in MDA-MB-231 xenograft-bearing mice; assay type: in vivo; settings: MDA-MB-231 tumors
T1 construct: from tissue; host or cells: MDA-MB-231 xenograft tumours grown in mice
T1 sequence (P33981 1-857): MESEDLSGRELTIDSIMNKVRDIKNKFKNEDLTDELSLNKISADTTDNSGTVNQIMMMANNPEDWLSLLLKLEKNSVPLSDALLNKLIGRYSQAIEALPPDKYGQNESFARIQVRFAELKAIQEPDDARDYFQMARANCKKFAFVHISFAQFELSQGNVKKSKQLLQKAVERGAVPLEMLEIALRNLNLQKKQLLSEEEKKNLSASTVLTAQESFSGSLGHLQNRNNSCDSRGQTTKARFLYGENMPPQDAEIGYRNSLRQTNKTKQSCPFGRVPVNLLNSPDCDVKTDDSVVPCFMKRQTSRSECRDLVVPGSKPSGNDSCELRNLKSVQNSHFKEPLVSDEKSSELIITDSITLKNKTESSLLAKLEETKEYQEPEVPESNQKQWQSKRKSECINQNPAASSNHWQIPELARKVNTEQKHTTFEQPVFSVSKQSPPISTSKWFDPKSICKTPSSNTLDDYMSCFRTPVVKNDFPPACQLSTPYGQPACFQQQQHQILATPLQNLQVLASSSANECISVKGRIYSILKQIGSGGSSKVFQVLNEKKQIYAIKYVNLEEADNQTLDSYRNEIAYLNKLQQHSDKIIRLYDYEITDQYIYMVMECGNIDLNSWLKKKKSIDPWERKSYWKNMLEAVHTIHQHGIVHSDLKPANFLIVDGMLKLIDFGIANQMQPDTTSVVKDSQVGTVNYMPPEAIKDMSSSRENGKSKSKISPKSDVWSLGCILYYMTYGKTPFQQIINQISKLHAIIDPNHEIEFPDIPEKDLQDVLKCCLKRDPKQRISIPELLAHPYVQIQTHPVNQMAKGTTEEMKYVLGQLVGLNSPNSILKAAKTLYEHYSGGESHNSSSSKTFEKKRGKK
Experimental: Prolonged TTK target occupancy was also measured in tumors derived from MDA-MB-231 xenograft-bearing mice treated with intermittent i.v. dosing regimen of compound of formula (I). […]

[7] = molecular target: T2, biotinylated PLK1 (Homo sapiens, UniProt P53350); test: target residence time assay (Biacore T200 surface plasmon resonance), PLK1; assay type: binding; settings: SPR, 22° C.
T2 construct: biotin (biotinylated)
T2 sequence (P53350 whole entry): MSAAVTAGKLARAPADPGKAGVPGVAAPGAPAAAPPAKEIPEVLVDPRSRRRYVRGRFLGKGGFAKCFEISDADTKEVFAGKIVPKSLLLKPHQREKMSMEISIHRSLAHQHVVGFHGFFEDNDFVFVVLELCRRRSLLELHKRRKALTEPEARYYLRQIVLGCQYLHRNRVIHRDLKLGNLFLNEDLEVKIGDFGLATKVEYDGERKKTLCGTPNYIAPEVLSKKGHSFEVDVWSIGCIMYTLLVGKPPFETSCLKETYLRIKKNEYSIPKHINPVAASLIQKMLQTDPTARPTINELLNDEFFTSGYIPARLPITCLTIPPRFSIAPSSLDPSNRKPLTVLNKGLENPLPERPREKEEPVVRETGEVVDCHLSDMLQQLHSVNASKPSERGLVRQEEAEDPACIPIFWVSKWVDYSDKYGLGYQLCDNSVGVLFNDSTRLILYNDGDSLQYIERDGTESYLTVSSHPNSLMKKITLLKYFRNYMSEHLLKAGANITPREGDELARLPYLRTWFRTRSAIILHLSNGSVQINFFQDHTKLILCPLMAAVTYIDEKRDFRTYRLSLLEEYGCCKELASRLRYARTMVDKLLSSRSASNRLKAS
Experimental: (§5) The affinity, i.e. the equilibrium dissociation constant (KD) (referred to as residence times), of the compound of formula (I) against TTK and PLK1 were determined using a Biacore T200™ surface plasmon resonance instrument using recombinant expressed TTK kinase domain (amino acids 519-808) or biotinylated PLK1. The immobilization of TTK was performed as described in Maia et al. Annals of Oncology, 2015; 26:2180-2192. The immobilization of biotinylated PLK1 was performed as described in Willemsen-Seegers et al. Journal of Molecular Biology, 2017; 429:574-586. The subsequent single cycle kinetic assays were performed at 22° C. using a compound concentration gradient of […], 10, 31.6 and 100 nM for TTK and 10, 31.6, 100, 316 and 1000 nM for PLK1, a contact time of 100 s and a flow rate of […]. The dissociation period was 1200-1800 s and a correction for an unstable surface using a blank run with buffer was performed.

[8] = test system: patient-derived tumor xenografts, including TNBC and hepatocellular cancer (HCC) models; test: monotherapy activity against patient-derived tumor xenografts in mice; assay type: in vivo; settings: data not shown
Source text: as §4

[9] = molecular target: T3, TTK kinase domain (amino acids 519-808) (Homo sapiens, UniProt P33981); test: target residence time assay (Biacore T200 surface plasmon resonance), TTK; assay type: binding; settings: SPR, 22° C.
T3 construct: recombinant expressed TTK kinase domain (amino acids 519-808)
T3 sequence (P33981 519-808): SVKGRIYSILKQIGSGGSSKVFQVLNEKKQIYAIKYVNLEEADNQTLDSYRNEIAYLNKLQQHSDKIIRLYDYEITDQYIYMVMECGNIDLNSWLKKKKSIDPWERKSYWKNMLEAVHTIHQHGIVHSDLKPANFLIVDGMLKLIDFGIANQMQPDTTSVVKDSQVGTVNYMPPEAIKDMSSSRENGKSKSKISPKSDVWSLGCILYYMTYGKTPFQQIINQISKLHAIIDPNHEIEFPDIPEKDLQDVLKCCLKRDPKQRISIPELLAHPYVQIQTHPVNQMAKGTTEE
Experimental: as §5

[10] = test system: other kinases; test: kinase specificity, other kinases versus TTK; assay type: biochemical
[11] = monotherapy: Formula (I) 7 mg/kg iv 2qw, Carboplatin 60 mg/kg iv qw
[12] = comparator Formula (I) monotherapy

Compound: N.N.O=C([O-])C1(C(=O)[O-])CCC1.[Pt+2] [Carboplatin]
- ΔT/C [1, 11]: 0.72
- Efficacy: ΔT/C Day 0 up to Day 31 [2]: 0.75*
- Mean difference of mean rate of growth (k), Formula (I) vs. treatment [2, 12]: −0.049
- Mean difference of mean rate of growth (k), Vehicle vs. treatment [2]: 0.0350
- Efficacy: ΔT/C Day 10 [2]: 0.74
- Tolerability (Day 10) ΔI/C ([2]; mean fractional body weight change vs vehicle (BWday10/BWday0)): 0.97
- Tolerability (Day 10) ΔBW (%) ([2]; mean ± SEM change in body weight, day 10): 0.8 ± 1.2%
- Efficacy: ΔT/C Day 0 up to Day 17 [3]: 0.96
- k means, Mean difference, Formula (I) vs. treatment [3, 12]: −0.039
- Δ tumor volume on day 14, Mean difference, Formula (I) vs. treatment [3, 12]: −350.8
- k means, Mean difference, Vehicle vs. treatment [3]: 0.007
- Δ tumor volume on day 14, Mean difference, Vehicle vs. treatment [3]: 71.5
- Efficacy: ΔT/C Day 14 [3]: 0.93
- Tolerability (Day 14) ΔT/C ([3]; mean fractional body weight change vs vehicle (BWday14/BWday0)): 1.00
- Tolerability (Day 14) ΔBW (%) ([3]; mean ± SEM change in body weight, day 14): 3.3 ± 2.6%

Compound: COc1cc(N2CCNCC2)ccc1Nc1ncc2c(n1)-n1ccc(C(=O)Nc3c(C)cccc3C)c1CC2 [Compound of formula (I)]
- highest tolerated doses of compound of formula (I) in combination with carboplatin ([4]; 2qw i.v., 4 or 24 hours after carboplatin 60 mg/kg qw i.v.): 6 to 7 mg/kg
- tolerability when compound of formula (I) applied first ([4]; 6-8 mg/kg, 24 h gap to carboplatin or 2qw schedule): not tolerated
- tolerated dose of compound of formula (I) when applied before carboplatin ([4]; weekly, carboplatin 60 mg/kg i.v. qw 4 h later): 8 mg/kg
- ΔT/C ([1]; monotherapy Formula (I) 7 mg/kg iv qw): 0.69
- ΔT/C [1, 11]: 0.64
- GI50 [5]: 35 nM
- time TTK completely occupied after last dose ([6]; i.v. twice-weekly, last MTD dose): at least 72 h
- time tumor-derived TTK fully drug-occupied after last administration ([6]; i.v. weekly MTD dosing, repeat experiment): up to 6 days
- target-residency on PLK1 [7]: a few minutes
- activity against patient-derived tumor xenografts [8]: significant activity
- Efficacy: ΔT/C Day 0 up to Day 31 [2]: 0.41***
- Mean difference of mean rate of growth (k), Vehicle vs. treatment [2]: 0.084
- Efficacy: ΔT/C Day 10 [2]: 0.58
- Tolerability (Day 10) ΔBW (%) ([2]; mouse, in vivo): 0.5 ± 1.6%
- Tolerability (Day 10) ΔI/C ([2]; mouse, in vivo): 0.96
- target-residency on TTK [9]: > 12 h
- Efficacy: ΔT/C Day 0 up to Day 17 [3]: 0.70
- k means, Mean difference, Vehicle vs. treatment [3]: 0.045
- Δ tumor volume on day 14, Mean difference, Vehicle vs. treatment [3]: 422.3
- Efficacy: ΔT/C Day 14 [3]: 0.60
- Tolerability (Day 14) ΔBW (%) ([3]; mouse, in vivo): 2.7 ± 2.1%
- Tolerability (Day 14) ΔT/C ([3]; mouse, in vivo): 1.00
- other kinase IC50s higher than those for TTK [10]: at least 10 fold
